Consider eight compounds from patent US20050101783A1, “N-(heterocycle-methyl)alkylamine derivative, process for producing the same, and bactericide” (priority 2000, published 2005).

Bounds are passed on as bounds.

The inhibition is the drop in the measured response relative to a control, in per cent.

One experiment has as its system Venturia inaequalis. Nature of the experiment: Antibacterial test to various phytopathogen, PDA plate culture, suppression of mold elongation. It counts as cell-based. As to conditions: Venturia inaequalis, final concentration 100 mg/l, 1 to 3 days, read-out: Inhibition Rate of Growth (suppression rate of the mold elongation, 5-step grade) V.i. How it is done: (§1) (Antibacterial Test to Various Phytopathogen)
(§2) In the test examples, a test was performed on the antibacterial of the compounds according to the present invention to various phytopathogenic molds in the methods later described.
(§3) The compounds of 10 mg were each weighed and they were each dissolved in dimethylsulfoxide of 1 ml. The solution of 0.6 ml was added to PDA culture medium (potato-dextrose-agar culture medium) of 60 ml at about 60° C, the solutions were well mixed in an Erlenmeyer flask of 100 ml, and the solution was poured into a Schale and was solidified therein to prepare a plate culture containing the compound according to the present invention of final concentration of 100 mg/l.
(§4) On the other hand, the sample molds on the plate cultured beforehand were punched by a cork borer of diameter of 4 mm, and they were inoculated on the plate culture containing the aforementioned chemical material. After the inoculation, the molds were inoculated at the appropriate growth temperatures of each mold (for the appropriate growth temperatures, for example, the Reference, LIST OF CULTURE 1996 MICROORGANISM 10th edition published by Institute for Fermentation can be referred to.) for 1 to 3 days, the growth rates of the molds were evaluated by measuring the diameter of a colony. The growth rate of the mold thus obtained on the plate culture containing the chemical material is compared with the growth rate of the mold in the non-addition area of the chemical material to find the suppression rate of the mold elongation by the following formula 3. R=100 (dc−dt)/dc (Formula 3) [wherein, R is the suppression rate of the mold elongation (%), dc is the diameter of a colony on an untreated plate and dt is the diameter of a colony on a chemical-treated plate, respectively.]
(§5) • 5: Mold whose suppression rate of the mold elongation is • 90% or higher • 4: Mold whose suppression rate of the mold elongation is less than 90% and 70% or higher • 3: Mold whose suppression rate of the mold elongation is less than 70% and 40% or higher • 2: Mold whose suppression rate of the mold elongation is less than 40% and 20% or higher • 1: Mold whose suppression rate of the mold elongation is less than 20%
V. i.: Venturia inaequalis
Consider `CC(CCc1cccc(OC(F)(F)F)c1)CN(C)Cc1ccc(Cl)nc1` (centres unmarked) [Compound I-58, 6-chloro-N-[2-methyl-4-(3-trifluoromethoxyphenyl)butyl]-N-methyl-3-pyridylmethylamine], for which the inhibition at 100 µg/mL is at least 90%.

Still in this experiment, the particulars now being: final concentration 100 mg/l, 1 to 3 days.
For the compound `CC(CCc1cc(Cl)cc(Cl)c1)CN(C)Cc1ccc(Cl)nc1` (centres unmarked) [Compound I-57], the “Inhibition Rate of Growth (suppression rate of the mold elongation, 5-step grade) V.i.” value is 5 (Mold whose suppression rate of the mold elongation is • 90% or higher).

The next experiment concerns Erysiphe graminis f. sp tritici. As to the kind of experiment: Preventive effect test of wheat powdery mildew (wettable powder sprayed on potted wheat, preventive value). The class given is in vivo. As to conditions: wettable powder suspended at 250 mg/l, sprayed on potted wheat at 100 l/10 a; morbidity investigated 9th to 14th day after inoculation. As for the experimental part:
(Preventive Effect Test of Erysiphe graminis f. sp […])
The wettable powders obtained by using each compound were diluted with water and were suspended at a predetermined concentration (250 mg/l) and the solution was sprayed over the first to second leaf stage-wheat (variety. Agriculture and Forestry No. 64) cultivated by using a square plastic pot (size: 6.4 cm×6.4 cm) at a rate of 100 1/10 a (are).
After the sprayed leaves were air-dried, the suspension of the spore of Erysiphe graminis f. sp tritici germ sampled from the contracted leaves were sprayed and inoculated over the sprayed leaf after air-dried, the leaves were kept at 20 to 24° C. under a high-humidity condition for 24 hours, then, the leaves were subjected to still standing in a greenhouse (temperature: 20 to 24° C. and relative humidity: 20 to 70 RH). The morbidity rate was investigated based on the following investigation standard on 9th to 14th day after the inoculation and the preventive value was calculated according to the following formula 1.
On to `CC(C)(CNCc1ccc(Cl)nc1)Cc1ccc(C(C)(C)C)cc1` [Compound I-2], for which the “Preventive Value (%)” value was determined as 100%.
On the same count and under the same terms, as for `CC(CCc1cc(Cl)cc(Cl)c1)CN(C)Cc1ccc(Cl)nc1` (centres unmarked) [Compound I-57], the figure is 100%; as for `CC(CCc1cccc(OC(F)(F)F)c1)CN(C)Cc1ccc(Cl)nc1` (centres unmarked) [Compound I-58, 6-chloro-N-[2-methyl-4-(3-trifluoromethoxyphenyl)butyl]-N-methyl-3-pyridylmethylamine], 100%.

For the next experiment, the system named is Aspergillus fumigatus. Nature of the experiment: Antibacterial test to Aspergillus fumigatus (96-hole plate, IC80). It counts as cell-based. Particulars: YNB culture with 0.22% low melting point-agarose, 1×10^4 cell/ml, 25° C., 72 hours, absorbance at 620 nm. How it is done:
(Antibacterial Test to Aspergillus fumigatus)
In the test example, a test was performed on the antibacterial of the compounds according to the present invention to Aspergillus fumigatus in the method later described.
Aspergillus fumigatus was cultivated in Sabouraud's agar at 37° C. for 3 days, after the spores to be used for the test were formed, the spore suspension was prepared. The spore suspension was suspended in YNB culture to which a 0.22% low melting point-agarose was added so as to allow the final concentration to be 1×10^4 cell/ml, and the solution was poured into each hole on a 96-hole flat-bottomed plate. Next, the dilution trains using each of the compounds according to the present invention were added, the solution was cultivated at 25° C. for 72 hours, and the propagation rate of the mold was evaluated by measuring the absorbance at 620 nm. With such a test, the propagation rate of the mold in the chemical-free test area was compared with this case to find the concentration of the compound where the propagation rate of the mold is suppressed by 80% as IC 80 (80% growth inhibition concentration).
Take `CC(C)(CNCc1ccccn1)Cc1ccc(C(C)(C)C)cc1` [Compound I-1]: the “80% Growth Inhibition Concentration (IC80)” value amounted to 5 µg/mL.
In the case of `CC(C)(CNCc1ccc(Cl)nc1)Cc1ccc(C(C)(C)C)cc1` [Compound I-2], the “80% Growth Inhibition Concentration (IC80)” value came to 38 µg/mL.
On the same count and under the same terms, as for `CC(C)(CNCc1ccc(Cl)nc1)Cc1ccccc1Cl` [Compound I-3], the figure is 9 µg/mL.
On the same count and under the same terms, under `CC(C)(CNCc1cnc(Cl)cn1)Cc1ccc(C(C)(C)C)cc1` [Compound I-5] stands 9 µg/mL; under `Cn1cc(CNCC(C)(C)Cc2ccccc2F)cn1` [Compound I-7], 150 µg/mL; under `Cn1cc(CNCC(C)(C)Cc2ccc(F)cc2F)cn1` [Compound I-9], 150 µg/mL.

In another experiment the test system is Microdohium nivale. Nature of the experiment: Antibacterial test to various phytopathogen, PDA plate culture, suppression of mold elongation. As to conditions: final concentration 100 mg/l, 1 to 3 days. It counts as cell-based. How it is done: as §1, §2, §3, §4, §5
(§6) In addition, the meanings of the abbreviated letters in Table 22 are as follows: • B. c.; Botrytis cinerea • P. h.; Pseudocercosporella herpotrichoides • M. n.; Microdohium nivale • L. n.; Leptosphaeria nodorum
On to `CC(CCc1cc(Cl)cc(Cl)c1)CN(C)Cc1ccc(Cl)nc1` (centres unmarked) [Compound I-57], for which the “Inhibition Rate of Growth (suppression rate of the mold elongation, 5-step grade) M.n.” value is 5 (Mold whose suppression rate of the mold elongation is • 90% or higher).

The same experiment, now with this note: final concentration 100 mg/l, 1 to 3 days, read-out: Inhibition Rate of Growth (suppression rate of the mold elongation, 5-step grade) M.n.
As to `CC(CCc1cccc(OC(F)(F)F)c1)CN(C)Cc1ccc(Cl)nc1` (centres unmarked) [Compound I-58, 6-chloro-N-[2-methyl-4-(3-trifluoromethoxyphenyl)butyl]-N-methyl-3-pyridylmethylamine], the inhibition at 100 µg/mL is at least 90%.

Another experiment has as its system Pseudocercosporella herpotrichoides. The experiment is described as above. The class given is cell-based. As to conditions: Oculimacula yallundae, final concentration 100 mg/l, 1 to 3 days, read-out: Inhibition Rate of Growth (suppression rate of the mold elongation, 5-step grade) P.h. As for the experimental part:
as §1, §2, §3, §4, §5, §6
In the case of `CC(CCc1cccc(OC(F)(F)F)c1)CN(C)Cc1ccc(Cl)nc1` (centres unmarked) [Compound I-58, 6-chloro-N-[2-methyl-4-(3-trifluoromethoxyphenyl)butyl]-N-methyl-3-pyridylmethylamine], the inhibition at 100 µg/mL is at least 90%.

Staying with this experiment, now noted: final concentration 100 mg/l, 1 to 3 days.
Take `CC(CCc1cc(Cl)cc(Cl)c1)CN(C)Cc1ccc(Cl)nc1` (centres unmarked) [Compound I-57]: the “Inhibition Rate of Growth (suppression rate of the mold elongation, 5-step grade) P.h.” value was 5 (Mold whose suppression rate of the mold elongation is • 90% or higher).

The subject of a further experiment is Botrytis cinerea. Described as above. The class given is cell-based. Particulars: Botrytis cinerea, final concentration 100 mg/l, 1 to 3 days, read-out: Inhibition Rate of Growth (suppression rate of the mold elongation, 5-step grade) B.c. As for the experimental part: as §1, §2, §3, §4, §5, §6
Turning to `CC(CCc1cccc(OC(F)(F)F)c1)CN(C)Cc1ccc(Cl)nc1` (centres unmarked) [Compound I-58, 6-chloro-N-[2-methyl-4-(3-trifluoromethoxyphenyl)butyl]-N-methyl-3-pyridylmethylamine], the inhibition at 100 µg/mL is at least 90%.

The same experiment, now with this note: final concentration 100 mg/l, 1 to 3 days.
For `CC(CCc1cc(Cl)cc(Cl)c1)CN(C)Cc1ccc(Cl)nc1` (centres unmarked) [Compound I-57], the “Inhibition Rate of Growth (suppression rate of the mold elongation, 5-step grade) B.c.” value is listed as 5 (Mold whose suppression rate of the mold elongation is • 90% or higher).

The test system of another experiment is Leptosphaeria nodorum. Described as above. It counts as cell-based. Particulars: Parastagonospora nodorum, final concentration 100 mg/l, 1 to 3 days, read-out: Inhibition Rate of Growth (suppression rate of the mold elongation, 5-step grade) L.n. How it is done:
as §1, §2, §3, §4, §5, §6
On to `CC(CCc1cccc(OC(F)(F)F)c1)CN(C)Cc1ccc(Cl)nc1` (centres unmarked) [Compound I-58, 6-chloro-N-[2-methyl-4-(3-trifluoromethoxyphenyl)butyl]-N-methyl-3-pyridylmethylamine], for which the inhibition at 100 µg/mL was at least 90%.

Staying with this experiment, now noted: final concentration 100 mg/l, 1 to 3 days.
`CC(CCc1cc(Cl)cc(Cl)c1)CN(C)Cc1ccc(Cl)nc1` (centres unmarked) [Compound I-57]: the “Inhibition Rate of Growth (suppression rate of the mold elongation, 5-step grade) L.n.” value is reported as 5 (Mold whose suppression rate of the mold elongation is • 90% or higher).

The next experiment concerns cucumber powdery mildew. Nature of the experiment: Preventive effect of cucumber powdery mildew (wettable powder sprayed on potted cucumber, preventive value). As to conditions: wettable powder suspended at 100 mg/l, sprayed on potted cucumber at 100 l/10 a; morbidity investigated 9th to 14th day after inoculation. It counts as in vivo. As for the experimental part:
(Preventive Effect of Cucumber Powdery Mildew)
The wettable powders obtained by using each compound were diluted with water and were suspended at a predetermined concentration (100 mg/l) and the solution was sprayed over the first to second leaf stage-cucumber (variety: “Sagamihanpakufushinari”) cultivated by using a square plastic pot (size: 6.4 cm×6.4 cm) at a rate of 100 1/10 a.
After the sprayed leaves were air-dried, the spore was inoculated over the aforementioned air-dried leaves from the contracted leaves with a brush, and the contraction was performed in a glass greenhouse (temperature: 20 to 24° C. and relative humidity: 20 to 70 RH). The morbidity rate was investigated based on the same investigation standard as that in the preventive effect test of the cucumber gray mold on 9th to 14th day after the inoculation, and the preventive value was calculated according to the aforementioned formula 2.
Take `CC(CCc1cc(Cl)cc(Cl)c1)CN(C)Cc1ccc(Cl)nc1` (centres unmarked) [Compound I-57]: the “Preventive Value (%)” value turned out to be 100%.
